Earlier results, collected in patent US20160256406A1, “OLIGOMERIC/POLYMERIC SILICONE FLUIDS FOR USE IN TRANSDERMAL DRUG DELIVERY SYSTEMS” (priority 2015, published 2016).

Legend:
[1] = at RT
[2] = at RT; remark: listed apart in the source

SMILES | Octanol/Water Partition Coefficient (Log Kow) [1] | Water Solubility [2] [µg/mL]
C[Si](C)(C)O[Si](C)(C)C [L2, Hexamethyldisiloxane] | 4.2 | –
C[Si]1(C)O[Si](C)(C)O[Si](C)(C)O1 [D3, Hexamethylcyclotrisiloxane] | 4.5 | –
C[Si](C)(C)O[Si](C)(C)O[Si](C)(C)O[Si](C)(C)O[Si](C)(C)C [L5, Dodecamethylpentasiloxane] | 6.0 | –
C[Si]1(C)O[Si](C)(C)O[Si](C)(C)O[Si](C)(C)O[Si](C)(C)O[Si](C)(C)O1 [D6, Dodecamethylcyclohexasiloxane] | 6.3 | 0.005
C[Si]1(C)O[Si](C)(C)O[Si](C)(C)O[Si](C)(C)O[Si](C)(C)O1 [D5, Decamethylcyclopentasiloxane] | 5.2-5.7 | 0.017 to 0.050
C[Si]1(C)O[Si](C)(C)O[Si](C)(C)O[Si](C)(C)O1 [D4, Octamethylcyclotetrasiloxane] | 5.1 | –
C[Si](C)(C)O[Si](C)(C)O[Si](C)(C)O[Si](C)(C)C [L4, Decamethyltetrasiloxane] | 5.4 | –
C[Si](C)(C)O[Si](C)(C)O[Si](C)(C)C [L3, Octamethyltrisiloxane] | 4.8 | –
